We go through 2 compounds from patent publication US20240123079A1 (Seagen Inc., priority 2021, published 2024).

In experiment [1] the test system is THP1-Dual™ reporter cells. Kind of experiment: THP1-Dual cell reporter assay (IRF-Lucia luciferase reporter). The settings on record: for EC50: Homo sapiens, THP1-Dual, free compounds, 24 h, Lucia reporter signal, read-out: EC50; for potency relative to other free compound: free drug. It counts as cell-based, human. In outline:
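THP1-Dual monocytic cells (~100,000/well) were exposed to compound for 24 h (ADCs 48 h). Secreted IRF-driven Lucia luciferase in the supernatant was quantified by QUANTI-Luc luminescence.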
Background: Reporter assays use an easily measured gene product as a stand-in for the process of interest.

A further experiment concerns DEL. Description: Cancer cell direct cytotoxicity assay (CellTiter-Glo), DEL. Format: cell-based. The settings on record: Homo sapiens, 96 h, free compound, read-out: Compound X50. As to the method: Bystander activity of ADCs was evaluated using Renca cancer cells and THP1-Dual™ cells (InvivoGen) which contain an IRF-Lucia luciferase reporter. Cells were cultured in RPMI-1640 (Gibco) with 10% heat-inactivated fetal bovine serum, Pen-Strep (100 U/ml-100 μg/ml, Gibco), HEPES (10 mM, Gibco), sodium pyruvate (1 mM, Gibco), MEM non-essential amino acids (1×, Gibco), GlutaMAX (1×, Gibco), and beta-mercaptoethanol (55 μM, Gibco). Renca cells were plated in a 96-well flat bottom tissue culture-treated clear polystyrene plate (Corning Costar #3596) at 50,000 cells per well in 100 μL. On the day following the initial plating, 50,000 THP1-Dual™ cells were added to each well with the indicated concentration of ADC in a total volume of 200 μL. Supernatant was harvested at 48 hours post addition of the THP1-Dual™ cells. To measure Lucia reporter signal, 10 μL of supernatant was combined with 40 μL of QUANTI-Luc™ Luminescence assay reagent (Invivogen PN: rep-qlc1) in a 96-well clear flat bottom tissue culture-treated black polystyrene plate (Corning Costar PN: 3603) and read on a Perkin Elmer Envision plate reader. In some experiments, HEK 293T cells engineered to express a murine protein typically expressed by immune cells (target antigen C— an immune cell antigen) were plated as above instead of Renca tumor cells. Cancer Cell Direct Cytotoxicity Assay
Cancer cells were counted and plated in 40 μL complete growth media in 384-well, white-walled tissue culture treated plates (Corning). Cell plates were incubated at 37° C. and with 5% CO2 overnight to allow the cells to equilibrate. Stock solutions containing ADCs or free drugs were serially diluted in RPMI-1640+20% fetal bovine serum (FBS). 10 μL of each concentration were then added to each cell plate in duplicate. Cells were then incubated at 37° C. and with 5% CO2 for 96 hours, upon which, the cell plates were removed from the incubator and allowed to cool to room temperature for 30 minutes prior to analysis. […] The luminescence of the samples was measured using an EnVision Multimode plate reader (Perkin Elmer, Waltham, MA). […]
For orientation: ATP-based viability assays read luminescence as a measure of living cells.

Experiment [2] in a line: In vivo cytokine assay, plasma of CT26 tumor-bearing mice. Also on record: species or system mouse. The settings on record: 1.86 mg/kg. The protocol:
Cytokines were measured in mouse plasma harvested at 3, 6, 24, or 48 hours after treatment with compounds or ADCs using a Milliplex MAP mouse cytokine/chemokine magnetic bead panel assay kit (MCYTOMAG-70k custom 11-plex kit: MCP1, MIP1α, MIP1β, TNFα, IFNγ, IL-10, IL-12p70, IL-6, IL-1β, IP10, RANTES) and analyzed using a Luminex™ MAGPIX™ Instrument System. Values that were outside of the standard curve range (<3.2 or […]) were excluded from calculation of the mean values.

A further experiment relates to CT26 cancer cells. Kind of experiment: CT26 tumor model, in vivo anti-tumor activity. The settings on record: CT26 tumor-bearing mice, q7dx3. Details: species or system mouse. As to the method:
CT26 cancer cells (ATCC) were cultured in RPMI 1640 modified with 1 mM Sodium Pyruvate, 10 mM HEPES, 2.8 mL 45% Glucose (1.25 g) and supplemented with 10% fetal bovine serum and 1% Pen/Strep/Glutamine. CT26 cancer cells were implanted ([…] in 200 uL serum-free RPMI 1640) subcutaneously into Balb/c mice.

Values joined by “and” are separate entries in the source; they are usually repeats but may differ in a detail not shown here. Equal values may be shown once.

The EC50 is the concentration that produces a half-maximal response. Regarding `CCn1nc(C)cc1C(=O)Nc1nc2cc(C(N)=O)cc(OC)c2n1C/C=C/Cn1c(NC(=O)c2cc(C)nn2CC)nc2cc(C(N)=O)cc(OCCCNC)c21` [Compound 12a], in experiment [1], the half-maximal effective concentration (EC50) amounted to 21 nM; the “potency relative to other free compound” value was “less potent than compound 1 and compound A”. Also, the IC50 with DEL was 3 nM.
Turning to `CCn1nc(C)cc1C(=O)Nc1nc2cc(C(N)=O)cc(O)c2n1C/C=C/Cn1c(NC(=O)c2cc(C)nn2CC)nc2cc(C(N)=O)cc(OC)c21` [Compound 1, (E)-1-(4-(5-carbamoyl-2-(1-ethyl-3-methyl-1H-pyrazole-5-carboxamido)-7-hydroxy-1H-benzo[d]imidazol-1-yl)but-2-en-1-yl)-2-(1-ethyl-3-methyl-1H-pyrazole-5-carboxamido)-7-methoxy-1H-benzo[d]imidazole-5-carboxamide], in experiment [1], the EC50 was found to be 5 nM and the “potency relative to other free compound” value is on record as “significantly more potent”. In addition, the IC50 in the experiment with DEL was 2 nM. For the same compound, in experiment [2] (3 h), the “IL-6 in peripheral blood (plasma)” value was 622.1 and 781.4 and 1128.3; the “IP-10 in peripheral blood (plasma)” value was 1439.4 and 1501.7 and 1160.7; the “MCP-1 in peripheral blood (plasma)” value is 73.7 and 78.6 and 110.3; the “MIP1b in peripheral blood (plasma)” value was 297.7 and 336.8 and 224. Besides, in experiment [2] (3 h), the “MIP-1a in peripheral blood (plasma)” value was 3.9 and 3.2; the “TNFa in peripheral blood (plasma)” value was 3.2 and 4.9 and 4.3. Further, in experiment [2] (6 h), the “IL-6 in peripheral blood (plasma)” value is 2652.5 and 2393.5 and 2412.7; the “IP-10 in peripheral blood (plasma)” value was 2610.8 and 2133.6 and 2473.4; the “MCP-1 in peripheral blood (plasma)” value is 3185.3 and 2816.3 and 1634.8; the “MIP-1a in peripheral blood (plasma)” value was 94.6 and 93.6 and 73.9. For the same compound, the “TNFa in peripheral blood (plasma)” value in experiment [2] (6 h) was 16.9 and 16.6 and 10. Besides, in experiment [2] (24 h), the “IL-6 in peripheral blood (plasma)” value is 44.5 and 31.8 and 36.5; the “IL-10 in peripheral blood (plasma)” value is reported as 3.2; the “IP-10 in peripheral blood (plasma)” value was 1121.6 and 1025.3 and 696.2; the “MCP-1 in peripheral blood (plasma)” value is 397.7 and 294.7 and 305.9. In experiment [2] (48 h), the “IL-10 in peripheral blood (plasma)” value stood at 3.2; the “IP-10 in peripheral blood (plasma)” value is 560.1 and 398.8 and 560. For the same compound, the “tumor growth delay” value with CT26 cancer cells is “minimal tumor growth delay”.
